Test results taken from patent US9056874B2, “Complement pathway modulators and uses thereof” (NOVARTIS AG, priority 2012, dated 2015).
pIC50: −log10 of the molar value.

Target: factor B (Homo sapiens, UniProt P00751)
Test: assay of Biological Example 2.7
Assay type: binding
Design: made in house; host or cells: drosophila cells
Conditions: assay of Biological Example 2.7 (Table 2)

Sequence of factor B (P00751 26-764): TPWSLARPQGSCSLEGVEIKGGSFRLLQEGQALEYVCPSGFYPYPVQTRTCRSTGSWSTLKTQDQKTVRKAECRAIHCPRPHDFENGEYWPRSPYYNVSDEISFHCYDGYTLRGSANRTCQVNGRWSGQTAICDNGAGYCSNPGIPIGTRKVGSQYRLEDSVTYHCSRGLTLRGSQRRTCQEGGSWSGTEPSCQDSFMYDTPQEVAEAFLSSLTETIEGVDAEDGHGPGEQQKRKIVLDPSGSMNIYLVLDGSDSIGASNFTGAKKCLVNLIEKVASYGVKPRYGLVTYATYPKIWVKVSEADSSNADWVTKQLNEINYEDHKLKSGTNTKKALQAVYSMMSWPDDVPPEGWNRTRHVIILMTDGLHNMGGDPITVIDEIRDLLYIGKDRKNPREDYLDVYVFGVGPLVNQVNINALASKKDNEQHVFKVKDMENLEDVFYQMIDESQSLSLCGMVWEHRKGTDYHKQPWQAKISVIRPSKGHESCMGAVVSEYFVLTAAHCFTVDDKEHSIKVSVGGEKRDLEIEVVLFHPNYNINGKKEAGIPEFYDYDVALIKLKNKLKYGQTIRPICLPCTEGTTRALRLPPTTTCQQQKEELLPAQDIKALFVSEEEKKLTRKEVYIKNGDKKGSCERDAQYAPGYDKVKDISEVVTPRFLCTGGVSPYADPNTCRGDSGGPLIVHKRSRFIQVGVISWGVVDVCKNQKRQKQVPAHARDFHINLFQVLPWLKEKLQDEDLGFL

SMILES	pIC50
COc1cc(C)c2[nH]ccc2c1C(C)(O)c1cc2ccc(C#N)cc2o1 (stereo not drawn) [Example 137-X]	6.72
COc1cc(C)c2[nH]ccc2c1C(NCCO)(c1nc2cc(C#N)ccc2[nH]1)C(F)(F)F (racemic) [Example 139-C, (±)-2-(2,2,2-Trifluoro-1-((2-hydroxyethyl)amino)-1-(5-methoxy-7-methyl-1H-indol-4-yl)ethyl)-1H-benzo[d]imidazole-5-carbonitrile]	6.92
COc1cc(C)c2[nH]ccc2c1C(OC(F)C(=O)O)(c1nc2cc(C#N)ccc2[nH]1)C(F)(F)F (racemic) [Example 35-G, (±)-2-(1-(5-Cyano-1H-benzo[d]imidazol-2-yl)-2,2,2-trifluoro-1-(5-methoxy-7-methyl-1H-indol-4-yl)ethoxy)-2-fluoroacetic acid]	6.11
Cc1cc(C)c2[nH]ccc2c1C(O)c1nc2cc(C#N)ccc2s1 (stereo not drawn) [Example 137-R]	6.10
COc1cc(C)c2[nH]ccc2c1C(OCC(C)(C)C(=O)O)(c1nc2cc(C#N)ccc2o1)C(F)(F)F (racemic) [Example 138, (±)-3-(1-(5-cyanobenzo[d]oxazol-2-yl)-2,2,2-trifluoro-1-(5-methoxy-7-methyl-1H-indol-4-yl)ethoxy)-2,2-dimethylpropanoic acid]	5.91
COc1cc(C)c2[nH]ccc2c1C(C)(N)c1nc2cc(C#N)ccc2s1 (stereo not drawn) [Example 137-D]	6.77
Cc1cc(C)c2[nH]ccc2c1C(O)c1nc2ccc(C#N)cc2s1 (stereo not drawn) [Example 137-O]	5.50
[2H]C([2H])([2H])OC(C)(c1nc2cc(C#N)ccc2[nH]1)c1c(OC)cc(C)c2[nH]ccc12 (single isomer, unassigned; (+)) [137-I b) (+), (+)-2-(1-(^2H3)methoxy-1-(5-methoxy-7-methyl-1H-indol-4-yl)ethyl)-1H-benzo[d]imidazole-5-carbonitrile]	6.96
COc1c(F)c(C)c2[nH]ccc2c1C(C)(OC)c1nc2cc(C#N)ccc2[nH]1 (stereo not drawn) [Example 137-H]	7.51
COc1cc(C)c2[nH]ccc2c1C(C)(O)c1cc2cc(C#N)ccc2o1 (stereo not drawn) [Example 137-V]	7.64
COC(C)(c1nc2cc(C#N)ccc2o1)c1c(C2CC2)cc(C)c2[nH]ccc12 (single isomer, unassigned; (+)) [137-L b) (+), (+)-2-(1-(5-cyclopropyl-7-methyl-1H-indol-4-yl)-1-methoxyethyl)benzo[d]oxazole-5-carbonitrile]	6.14
COc1cc(C)c2[nH]ccc2c1C(C)(O)c1nc2ccc(C#N)cc2s1 (stereo not drawn) [Example 137-S]	6.96
COC(C)(c1nc2cc(C#N)ccc2o1)c1c(C2CC2)cc(C)c2[nH]ccc12 (single isomer, unassigned; (-)) [137-L b) (−), (−)-2-(1-(5-cyclopropyl-7-methyl-1H-indol-4-yl)-1-methoxyethyl)benzo[d]oxazole-5-carbonitrile]	6.57
COc1cc(C)c2[nH]ccc2c1C(CCC(=O)O)c1nc2cc(C#N)ccc2o1 (single isomer, unassigned; (+)) [Example 149-C, (+)-4-(5-cyanobenzo[d]oxazol-2-yl)-4-(5-methoxy-7-methyl-1H-indol-4-yl)butanoic acid]	6.80
COc1cc(C)c2[nH]ccc2c1C(Cc1nn[nH]n1)c1nc2cc(C#N)ccc2o1 (racemic) [Example 153, (±)-2-(1-(5-Methoxy-7-methyl-1H-indol-4-yl)-2-(2H-tetrazol-5-yl)ethyl)benzo[d]oxazole-5-carbonitrile]	5.95
CCOC(=O)COC(c1nc2cc(C#N)ccc2[nH]1)(c1c(OC)cc(C)c2[nH]ccc12)C(F)(F)F (single isomer, unassigned) [Example 35-D, (+) or (−)-Ethyl 2-(1-(5-cyano-1H-benzo[d]imidazol-2-yl)-2,2,2-trifluoro-1-(5-methoxy-7-methyl-1H-indol-4-yl)ethoxy)acetate]	7.62
COc1cc(C)c2[nH]ccc2c1C(CC(=O)O)c1nc2cc(C#N)ccc2o1 (single isomer, unassigned; (-)) [Example 148-E, (−)-3-(5-cyanobenzo[d]oxazol-2-yl)-3-(5-methoxy-7-methyl-1H-indol-4-yl)propanoic acid]	6.38
COc1cc(C)c2[nH]ccc2c1C(NCCN)(c1nc2cc(C#N)ccc2[nH]1)C(F)(F)F (racemic) [38-D b) (+), (+)-2-(1-((2-aminoethyl)amino)-2,2,2-trifluoro-1-(5-methoxy-7-methyl-1H-indol-4-yl)ethyl)-1H-benzo[d]imidazole-5-carbonitrile]	5.69
COc1cc(C)c2[nH]ccc2c1C(NCCN)(c1nc2cc(C#N)ccc2[nH]1)C(F)(F)F (racemic) [38-D b) (−), (−)-2-(1-((2-aminoethyl)amino)-2,2,2-trifluoro-1-(5-methoxy-7-methyl-1H-indol-4-yl)ethyl)-1H-benzo[d]imidazole-5-carbonitrile]	6.11
COc1cc(C)c2[nH]ccc2c1C(c1nc2cc(C#N)ccc2[nH]1)C(C)C(=O)O (single isomer, unassigned; diastereomer a) [Example 147-D, (±)-3-(5-Cyano-1H-benzo[d]imidazol-2-yl)-3-(5-methoxy-7-methyl-1H-indol-4-yl)-2-methylpropanoic acid (Diastereomer A)]	6.10
COc1cc(C)c2[nH]ccc2c1C(CCO)c1nc2cc(C#N)ccc2[nH]1 (racemic) [Example 145-E, (±)-2-(3-hydroxy-1-(5-methoxy-7-methyl-1H-indol-4-yl)propyl)-1H-benzo[d]imidazole-5-carbonitrile]	6.60
COc1cc(C)c2[nH]ccc2c1C(C)(O)c1nc2cc(C#N)ccc2o1 (single isomer, unassigned; (-)) [137-N b) (−), (−)-2-(1-hydroxy-1-(5-methoxy-7-methyl-1H-indol-4-yl)ethyl)benzo[d]oxazole-5-carbonitrile]	8.22
COC(=O)CC(C)(c1nc2cc(C#N)ccc2[nH]1)c1c(OC)cc(C)c2c1CCN2 (racemic) [Example 156-K, (±)-Methyl 3-(5-cyano-1H-benzo[d]imidazol-2-yl)-3-(5-methoxy-7-methylindolin-4-yl)butanoate]	6.89
COc1cc(C)c2[nH]ccc2c1C(C)(Cc1nn[nH]n1)c1nc2cc(C#N)ccc2o1 (racemic) [Example 154, (±)-2-(2-(5-Methoxy-7-methyl-1H-indol-4-yl)-1-(2H-tetrazol-5-yl)propan-2-yl)benzo[d]oxazole-5-carbonitrile]	4.68
[2H]C([2H])([2H])OC(c1nc2cc(C#N)ccc2[nH]1)(c1c(OC)cc(C)c2[nH]ccc12)C(F)(F)F (single isomer, unassigned; (+)) [137-J b) (+), (+)-2-(2,2,2-trifluoro-1-(^2H3)-methoxy-1-(5-methoxy-7-methyl-1H-indol-4-yl)ethyl)-1H-benzo[d]imidazole-5-carbonitrile]	5.89
COc1cc(C)c2[nH]ccc2c1C(C)(OC)c1cc2cc(C#N)ccc2o1 (stereo not drawn) [Example 137-Z]	6.28
Cc1cc(Br)c(C(C)(N)c2nc3cc(C#N)ccc3[nH]2)c2cc[nH]c12 (single isomer, unassigned; (+)) [137-A b) (+), (+)-2-(1-amino-1-(5-bromo-7-methyl-1H-indol-4-yl)ethyl)-1H-benzo[d]imidazole-5-carbonitrile]	6.92
